# Laboratory results as given in US20190134005A1 (BioMarin Pharmaceutical Inc., priority 2016, published 2019).
# Target: T1, human CGT (Homo sapiens, UniProt Q16880)
# T1 sequence (Q16880 21-541): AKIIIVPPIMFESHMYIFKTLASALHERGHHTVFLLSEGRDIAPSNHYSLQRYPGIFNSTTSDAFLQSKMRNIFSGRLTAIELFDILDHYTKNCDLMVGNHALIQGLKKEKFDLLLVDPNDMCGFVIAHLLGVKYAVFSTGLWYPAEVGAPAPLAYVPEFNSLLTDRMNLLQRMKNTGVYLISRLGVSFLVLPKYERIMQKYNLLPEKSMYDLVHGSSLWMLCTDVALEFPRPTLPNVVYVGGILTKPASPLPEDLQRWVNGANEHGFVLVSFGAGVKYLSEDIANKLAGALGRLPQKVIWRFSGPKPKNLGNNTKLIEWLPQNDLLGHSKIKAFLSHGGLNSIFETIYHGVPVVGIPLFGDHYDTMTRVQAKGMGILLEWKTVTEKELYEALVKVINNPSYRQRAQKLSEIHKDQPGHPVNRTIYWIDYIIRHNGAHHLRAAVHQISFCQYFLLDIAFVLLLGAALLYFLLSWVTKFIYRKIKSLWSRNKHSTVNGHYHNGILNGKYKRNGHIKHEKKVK
# Experiment: Assay 1: CGT Enzymatic Assay (RapidFire/MS/MS, 0.01% Tween 80)
# Assay type: biochemical
# Settings: Table 1, Compounds of Formula (I) and Formula (II); CGT enzymatic assay, C6-NBD-dihydro-galactosylceramide readout; read-out: IC50
row,SMILES,IC50 [nM]
1,"N#Cc1ccc(N2C(=O)N(c3ccc(Cl)cc3)C3(CCC3)C2(O)c2cccc(C#N)c2)cc1 (centres unmarked) [Compound 289, 3-(5-(4-chlorophenyl)-7-(4-cyanophenyl)-8-hydroxy-6-oxo-5,7-diazaspiro[3.4]octan-8-yl)benzonitrile]",< 1000
2,"N#Cc1ccc(N2C(=O)N(c3ccc(Cl)cc3)C(O)(c3cccc(OC(F)(F)F)c3)C23CCC3)cc1 (centres unmarked) [Compound 269, 4-(7-(4-chlorophenyl)-8-hydroxy-6-oxo-8-(3-(trifluoromethoxy)phenyl)-5,7-diazaspiro[3.4]octan-5-yl)benzonitrile]",< 1000
3,"COC[C@]1(C)N(c2ccc(Cl)cc2)C(=O)N(c2ccc(Cl)cc2)[C@]1(O)c1cccc(OC(F)(F)F)c1 [Compound 296-2, (4S,5S)-1,3-bis(4-chlorophenyl)-4-hydroxy-5-(methoxymethyl)-5-methyl-4-(3-(trifluoromethoxy)phenyl)imidazolidin-2-one]",< 1000
4,"CC[C@@]1(C)N(c2ccc(C#N)cc2)C(=O)N(c2ccc(C#N)cc2)C1(O)c1cccc(OC(F)(F)F)c1 (stereo partly drawn) [Example 319-1, 4,4′-((4R)-4-ethyl-5-hydroxy-4-methyl-2-oxo-5-(3-(trifluoromethoxy)phenyl)imidazolidine-1,3-diyl)dibenzonitrile]",< 1000
5,"CN1CC2(C1)N(c1ccc(Cl)cc1)C(=O)N(c1ccc(Cl)cc1)C2(O)c1cccc(C#N)c1 (centres unmarked) [Compound 301, 3-(5,7-bis(4-chlorophenyl)-8-hydroxy-2-methyl-6-oxo-2,5,7-triazaspiro[3.4]octan-8-yl)benzonitrile 2,2,2-trifluoroacetate]",< 1000
6,"O=C1N(c2ccc(Cl)cc2)C2(COC2)C(O)(c2sccc2Br)N1c1ccc(Cl)cc1 (centres unmarked) [Example 310, 8-(3-bromothiophen-2-yl)-5,7-bis(4-chlorophenyl)-8-hydroxy-2-oxa-5,7-diazaspiro[3.4]octan-6-one]",< 1000

# Same assay, conditions: Table 1, Compounds of Formula (I) and Formula (II); CGT enzymatic assay; read-out: IC50
row,SMILES,IC50 [nM]
1,"Cc1cccc(-c2cn(-c3ccc(Cl)cc3)c(=O)n2-c2ccc(Cl)cc2)c1 [Compound 259, 1,3-bis(4-chlorophenyl)-4-(m-tolyl)-1,3-dihydro-2H-imidazol-2-one]",> 50000
2,"N#Cc1cc(Cl)cc(C2(O)CN(c3ccc(Br)cc3)C(=O)N2c2ccc(Br)cc2)c1 (centres unmarked) [Compound 113, 3-(1,3-bis(4-bromophenyl)-4-hydroxy-2-oxoimidazolidin-4-yl)-5-chlorobenzonitrile]",1000 to 10000
3,"CC[C@H]1N(c2ccc(Cl)cc2)C(=O)N(c2ccc(Cl)cc2)C1(O)c1cccc(C#N)c1 (single isomer, unassigned) [Compound 106-2]",< 1000
4,"CCC[C@H]1N(c2ccc(Br)cc2)C(=O)N(c2ccc(Br)cc2)C1(O)c1cccc(C)c1 (stereo partly drawn) [Compound 96-2, (5R)-1,3-bis(4-bromophenyl)-4-hydroxy-5-propyl-4-(m-tolyl)imidazolidin-2-one]",< 1000
5,"N#Cc1cccc(C2(O)N(c3ccc(Cl)cc3)C(=O)N(c3ccc(Cl)cc3)C23CCCC3)c1 (centres unmarked) [Compound 135, 3-(1,3-bis(4-chlorophenyl)-4-hydroxy-2-oxo-1,3-diazaspiro[4.4]nonan-4-yl)benzonitrile]",< 1000
6,"CCc1cccc(C2(O)C(C)N(c3ccc(Cl)cc3)C(=O)N2c2ccc(Cl)cc2)c1 (centres unmarked) [Compound 69, 1,3-bis(4-chlorophenyl)-4-(3-ethylphenyl)-4-hydroxy-5-methylimidazolidin-2-one]",< 1000
7,"CCC[C@H]1N(c2ccc(Cl)cc2)C(=O)N(c2ccc(Cl)cc2)C1(O)c1cccc(C)c1 (stereo partly drawn) [Compound 90-2, (5R)-1,3-bis(4-chlorophenyl)-4-hydroxy-5-propyl-4-(m-tolyl)imidazolidin-2-one]",< 1000
8,"CC#Cc1cccc(C2(O)C(C)N(c3ccc(Cl)cc3)C(=O)N2c2ccc(Cl)cc2)c1 (centres unmarked) [Compound 103, 1,3-bis(4-chlorophenyl)-4-hydroxy-5-methyl-4-(3-(prop-1-yn-1-yl)phenyl)imidazolidin-2-one]",< 1000
9,"C[C@H]1N(c2ccc(Br)cc2)C(=O)N(c2ccc(Br)cc2)C1(O)c1cccc(C(F)(F)F)c1 (stereo partly drawn) [Compound 74-2, (5R)-1,3-bis(4-bromophenyl)-4-hydroxy-5-methyl-4-(3-(trifluoromethyl)phenyl)imidazolidin-2-one]",< 1000
10,"O=c1n(-c2ccc(Cl)cc2)c(-c2cccc(OC(F)F)c2)c(C2CC2)n1-c1ccc(Cl)cc1 [Compound 70, 1,3-bis(4-chlorophenyl)-4-cyclopropyl-5-(3-(difluoromethoxy)phenyl)-1,3-dihydro-2H-imidazol-2-one]",< 1000
11,"CN(C)c1cccc(C2(O)CN(c3ccc(Br)cc3)C(=O)N2c2ccc(Br)cc2)c1 (centres unmarked) [Compound 125, 1,3-bis(4-bromophenyl)-4-(3-(dimethylamino)phenyl)-4-hydroxyimidazolidin-2-one]",> 50000
12,"O=C1N(c2ccc(Br)cc2)C(=O)C(O)(C2Cc3ccccc3C2)N1c1ccc(Br)cc1 (centres unmarked) [Example 215, 1,3-bis(4-bromophenyl)-5-(2,3-dihydro-1H-inden-2-yl)-5-hydroxyimidazolidine-2,4-dione]",50000 to 100000
13,"CCC1N(c2ccc(F)cc2)C(=O)N(c2ccc(F)cc2)C1(O)c1cccc(C(F)(F)F)c1 (centres unmarked) [Compound 139, 5-ethyl-1,3-bis(4-fluorophenyl)-4-hydroxy-4-(3-(trifluoromethyl)phenyl)imidazolidin-2-one]",1000 to 10000
14,Cc1cccc(C2(O)[C@@H](C)N(c3ccc(Br)cc3)C(=O)N2c2ccc(Br)cc2)c1 (some centres unmarked) [Example 29-2],< 1000
15,"CCc1c(-c2cccc(C#N)c2)n(-c2ccc(F)cc2)c(=O)n1-c1ccc(F)cc1 [Compound 252, 3-(5-ethyl-1,3-bis(4-fluorophenyl)-2-oxo-2,3-dihydro-1H-imidazol-4-yl)benzonitrile]",1000 to 10000
16,CCCC1N(c2ccc(Br)cc2)C(=O)N(c2ccc(Br)cc2)C1(O)c1ccccc1 (centres unmarked) [Compound 51],< 1000
17,"C[C@@]1(C(F)(F)F)N(c2ccc(Cl)cc2)C(=O)N(c2ccc(Cl)cc2)C1(O)c1cccc(C#N)c1 (single isomer, unassigned) [Example 177-2]",1000 to 10000
18,"COc1ccccc1C1(O)C(=O)N(c2ccc(Br)cc2)C(=O)N1c1ccc(Br)cc1 (centres unmarked) [Example 206, 1,3-bis(4-bromophenyl)-5-hydroxy-5-(2-methoxyphenyl)imidazolidine-2,4-dione]",> 50000
19,"CCCC1(C)N(c2ccc(Cl)cc2)C(=O)N(c2ccc(Cl)cc2)C1(O)c1cccc(OC(F)(F)F)c1 (centres unmarked) [Example 170, 1,3-bis(4-chlorophenyl)-4-hydroxy-5-methyl-5-propyl-4-(3-(trifluoromethoxy)phenyl)imidazolidin-2-one]",< 1000
20,"CC[C@]1(C)N(c2ccc(Cl)cc2)C(=O)N(c2ccc(Cl)cc2)C1(O)c1cccc(C#N)c1 (single isomer, unassigned) [Example 185-2]",< 1000
21,"Cc1c(-c2cccc(OC(F)(F)F)c2)n(-c2ccc(Br)cc2)c(=O)n1-c1ccc(Br)cc1 [Compound 262, 1,3-bis(4-bromophenyl)-4-methyl-5-(3-(trifluoromethoxy)phenyl)-1,3-dihydro-2H-imidazol-2-one]",1000 to 10000
22,"N#Cc1cccc(C2(O)N(c3ccc(Cl)cc3)C(=O)N(c3ccc(Cl)cc3)[C@@]23CCOC3)c1 (stereo partly drawn) [Example 221-2, 3-((5R)-1,3-bis(4-chlorophenyl)-4-hydroxy-2-oxo-7-oxa-1,3-diazaspiro[4.4]nonan-4-yl)benzonitrile]",< 1000
23,"O=c1n(-c2ccc(Br)cc2)cc(-c2ccc[nH]2)n1-c1ccc(Br)cc1 [Compound 256, 1,3-bis(4-bromophenyl)-4-(1H-pyrrol-2-yl)-1,3-dihydro-2H-imidazol-2-one]",> 50000
24,"CC(C)C1N(c2ccc(C(F)(F)F)cc2)C(=O)N(c2ccc(C(F)(F)F)cc2)C1(O)c1cccc(OC(F)(F)F)c1 (centres unmarked) [Example 196, 4-hydroxy-5-isopropyl-4-(3-(trifluoromethoxy)phenyl)-1,3-bis(4-(trifluoromethyl)phenyl)imidazolidin-2-one]",< 1000
25,"O=c1n(-c2ccc(Cl)cc2)c(-c2cccc(Cl)c2)c(C2CCCO2)n1-c1ccc(Cl)cc1 (centres unmarked) [Compound 254, 4-(3-chlorophenyl)-1,3-bis(4-chlorophenyl)-5-(tetrahydrofuran-2-yl)-1,3-dihydro-2H-imidazol-2-one]",1000 to 10000
26,"C#Cc1cccc(C2(O)[C@H](C)N(c3ccc(Cl)cc3)C(=O)N2c2ccc(Cl)cc2)c1 (stereo partly drawn) [Compound 93-1, (5S)-1,3-bis(4-chlorophenyl)-4-(3-ethynylphenyl)-4-hydroxy-5-methylimidazolidin-2-one]",< 1000
27,"N#Cc1cc(Cl)cc(C2(O)CN(c3ccc(Cl)cc3)C(=O)N2c2ccc(Cl)cc2)c1 (centres unmarked) [Compound 95, 3-(1,3-bis(4-chlorophenyl)-4-hydroxy-2-oxoimidazolidin-4-yl)-5-chlorobenzonitrile]",1000 to 10000
28,"O=C1N(c2ccc(F)cc2)C(=O)C(O)(c2ccccc2)N1c1ccc(F)cc1 (centres unmarked) [Example 161, 1,3-bis(4-fluorophenyl)-5-hydroxy-5-phenylimidazolidine-2,4-dione]",> 50000
29,"O=C1N(c2ccc(Cl)cc2)C2(CC2)C(O)(c2cccc(OC(F)(F)F)c2)N1c1ccc(Cl)cc1 (centres unmarked) [Example 224, 4,6-bis(4-chlorophenyl)-7-hydroxy-7-(3-(trifluoromethoxy)phenyl)-4,6-diazaspiro[2.4]heptan-5-one]",< 1000
